Experiments:
Balb C mice = assay: hair-growth activity after DHT treatment; assay type: in vivo; details: observed on day 19 after hair removal; DHT 8 days, then 10 days treatment or none
Text: The hairs of the back portions of Balb C mice were removed and a hair loss-inducing substance, dihydrotestosterone (DHT, TCI Inc.) was applied for 8 days to induce […] stage before the proliferation of kerationcytes.

[1] = test system: receptor of basic fibroblast growth factor; assay: competitive binding assay with 125I-labeled bFGF on BHK cells; design: species or system hamster; details: FIG. 3
Procedure: To examine the binding potency of the purified acetyl-decapepetide of Example 10 to the receptor of basic fibroblast growth factor, the competitive binding assay was carried out using baby hamster kidney cells (BHK, the Korean Cell Line Bank) and ^125I-labeled bFGF (Amersham) according to process proposed by Baird et al. (Baird, et al., Proc. Natl. Acad. Sci. USA, 85:2324-2328 (1988)). Cells were cultured in 48-well plates for tissue culture and washed with cold Ham's F12 medium containing 0.2% gelatin (Sigma-Aldrich). 200 fmol of ^125I-bFGF and 1-100 nmol of acetyl decapeptide were dissolved in 200 μl of buffer and incubated with cells for 2 hr. Following the collection of cells by centrifugation, the cell membranes were isolated using 0.1% Triton X-100 and the radioactivity of ^125I-bFGF bound to receptors on cell membrane was determined using a gamma scintillation counter (Packard, U.S.A) (FIG. 3).

3T3 fibroblast = assay: [3H]-thymidine incorporation in 3T3 fibroblast; assay type: cell-based; details: 3T3 cells, 2 ng/ml serially diluted two-fold, FIG. 4
Procedure: The biological activities of the purified acetyl-decapepetide of Example 10 were evaluated using 3T3 fibroblast (The Korean Cell Line Bank) according to Rizzino et al method to measure [^3H]-thymidine incorporation (Rizzino, et al. Cancer Res., 48:4266 (1988)). 3T3 cells were cultured in 250 ml-flasks containing EMEM (Eagle's minimal essential media, Gibco, U.S.A.) supplemented with […] (fetal bovine serum). 3T3 cells cultured were treated with 0.25% trypsin solution to detach cells from the bottom of culture flasks and centrifuged to collect cell pellets. Cells were resuspended in EMEM not containing FBS, its aliquot, 2×10^4 cells/0.3 ml medium was added to each well of 24-well plates and cultured under 7% CO2 for 24 hr at 37° C. 2 ng/ml of the acetyl decapeptide of this invention was serially diluted by two-fold using EMEM containing 0.2 (w/v) % bovine serum albumin and 0.3 ml of the diluted peptide was added to each well, followed by additional culturing under 7% CO2 for 6 hr at 37° C. Afterwards, 0.5 μCi of [^3H]-thymidine (Amersham, TRK 686, 68 Ci/mmol) was added to each well and incubated overnight. […] The dried filters were added along with 2 ml of scintillation cocktail to scintillation vials and allowed to stand for 30 min at room temperature, after which radioactivity incorporated into cells was determined using a scintillation counter (Beckman, U.S.A).

NIH-3T3 cell = assay: stability in 50 mM Tris-HCl at 37° C., residual activity by MTT assay; assay type: physicochemical; details: 50 mM Tris-HCl pH 8.0, 37° C., days 0-100, relative to day 0, FIG. 5
Procedure: To evaluate stability of the purified acetyl decapeptide of Example 10, the decapeptide and acetyl decapeptide were dissolved in 50 mM Tris-HCl (pH 8.0) to a concentration of 10 μg/ml. A recombinant bFGF produced E. coli (Sigma-Aldrich) was prepared as a control in the same buffer to a concentration of 1 μg/ml. The prepared solutions were introduced into glass vials and kept to stand at 37° C. Afterwards, the solutions were taken on days 0, 1, 10, 25, 50, 75 and 100 and subjected to MTT assay (Scudiero, D. A., et al. Cancer Res. 48:4827-4833 (1988)) using NIH-3T3 cell (Korean Cell Line Bank) to determine residual activities of peptides and bFGF (FIG. 5). The results were given as relative values to the activity (100%) of sample taken on day 0.

HaCaT keratinocytes = assay: SRB colorimetric assay of HaCaT keratinocyte growth; assay type: cell-based, human; details: 10 ng/ml or 1,000 ng/ml, 72 hr, FIGS. 6 and 7
Procedure: To analyze effects of peptides of this invention on proliferation of keratinocytes, SRB (Sulforhodamine B) calorimetric assay was carried out using HaCaT kerationcyte according to Rizzino et al method (Rizzino, et al. Cancer Res., 48:4266 (1988)). HaCaT ketatinocytes (The Korean Cell Line Bank) were cultured in 250 ml-flasks containing EMEM (Eagle's minimal essential media, Gibco, U.S.A.) supplemented with […] (fetal bovine serum). HaCaT ketatinocytes cultured were treated with 0.25% trypsin solution to detach cells from the bottom of culture flasks and centrifuged to collect cell pellets. Cells were resuspended in EMEM not containing FBS, its aliquot (4×10^3) cells was added to each well of 96-well plates and cultured under 7% CO2 for 24 hr at 37° C. After 24-hr culture, the medium was changed with a fresh medium not containing serum and cells were incubated with bFGF or the acetyl-decapeptide of Example 10 (10 ng/ml or 1,000 ng/ml) dissolved in 10% DMSO for 72 hr under the same conditions as described above. After removing supernatants, cells were washed once using PBS (phosphate buffered saline) and incubated with SRB solution (Sigma-Aldrich). Cells were washed with PBS and observed under a microscope to find cell viability. In addition, absorbance at 590 nm was measured to analyze cell proliferation (FIG. 6). […]

procollagen = procollagen level in HaCaT cells (Procollagen ELISA kit); assay type: cell-based, human; details: 1 μg/ml, FIG. 8
Procedure: (§1) Furthermore, HaCaT cell line was treated with the acetyl-decapeptide of this invention (1 μg/ml) and the level of procollagen, one of indicators to show the improvement in skin wrinkle, was examined (FIG. 8). The level of procollagen was measured using Procollagen ELISA kit (Takara). For verifying effects on levels of laminin and hyaluronic acid, another indicator representing the improvement in skin wrinkle, HaCaT cell line was incubated with the acetyl-decapeptide of this invention (1 μmole) and levels of laminin and hyaluronic acid were measured using Laminin ELISA kit (CHEMICON, USA) and Hyaluronic acid ELISA kit (Echelon Biosciences Inc, USA), respectively (FIG. 9).

laminin = laminin level in HaCaT cells (Laminin ELISA kit); assay type: cell-based, human; details: 1 μmole, FIG. 9
Procedure: as §1

hyaluronic acid = hyaluronic acid level in HaCaT cells (Hyaluronic acid ELISA kit); assay type: cell-based, human; details: 1 μmole, FIG. 9
Procedure: as §1

With `C[C@]12CCC(=O)C[C@@H]1CC[C@@H]1[C@@H]2CC[C@]2(C)[C@@H](O)CC[C@@H]12` [DHT, dihydrotestosterone] the hair growth (Balb C mice) was “hair growth was barely observed”.

In the case of Ac-YRSRKYTSWY-OH [acetyl decapeptide], the “binding to bFGF receptor in competition with 125I-bFGF” value ([1]; 200 fmol 125I-bFGF, 1-100 nmol peptide, 2 hr) is reported as “binds to bFGF receptor in a competitive manner with bFGF”, the “binding potency to bFGF receptor” value [1] is reported as “higher binding potency” and the “[3H]-thymidine incorporation into fibroblasts” value (3T3 fibroblast) is reported as “promotes thymidine incorporation into fibroblasts in a dose-dependent fashion”. For the same compound, the “residual activity over time (stability)” value (NIH-3T3 cell) was “excellent stability”, the “cell viability / proliferation of HaCaT keratinocytes” value (HaCaT keratinocytes) was “much higher cell viability than control” and the “level of procollagen in cells” value (procollagen) was “increased in a time-dependent manner”. For the same compound, the level of laminin (laminin) was “induce the elevation of levels of laminin and hyaluronic acid” and the “level of hyaluronic acid” value (hyaluronic acid) was “induce the elevation of levels of laminin and hyaluronic acid”.

With “decapeptide: unprotected bFGF-derived decapeptide, presumably the amino acid sequence of SEQ ID NO:1 (YRSRKYTSWY) (peptide having functions and actions of basic fibroblast growth factor)” the “residual activity over time (stability)” value (NIH-3T3 cell) was “not to be decreased over time”.

For “recombinant bFGF: recombinant bFGF produced E. coli (Sigma-Aldrich), prepared as a control”, the “residual activity over time (stability)” value (NIH-3T3 cell) was “sharply decreased with the lapse of time”.
